Experimental data: the SangsterLogP compilation

Row | Compound | logP
1 | CC(C)C(=O)Nc1ccccc1S(N)(=O)=O | 0.97
2 | COc1ccc(S(N)(=O)=O)c(NC(=O)C(C)C)c1 | 1.37
3 | CCC(CC)C(=O)Nc1cc(C)ccc1S(N)(=O)=O | 2.13
4 | CCC(CC)C(=O)Nc1cc(OC)ccc1S(N)(=O)=O | 2.01
5 | CCC(CC)C(=O)NS(=O)(=O)c1ccc(OC)cc1N | 2.03
6 | CCC(CC)C(=O)Nc1cc(C(F)(F)F)ccc1S(N)(=O)=O | 3.06
7 | CCC(CC)C(=O)Nc1ccccc1S(N)(=O)=O | 1.62
8 | CCC(CC)C(=O)NS(=O)(=O)c1cc([N+](=O)[O-])cc(C(F)(F)F)c1 | 3.57
9 | CCC(CC)C(=O)NS(=O)(=O)c1ccccc1N | 1.64
10 | CC(C)C(=O)Nc1cc(Cl)ccc1S(N)(=O)=O | 1.87
11 | CC(C)C(=O)Nc1ccc(C(F)(F)F)cc1S(N)(=O)=O | 2.45
12 | CCC(CC)C(=O)Nc1cc(Cl)ccc1S(N)(=O)=O | 2.55

Results, then the compound that gave them:

Row | logP | Compound
13 | 2.17 | Cc1ccc(S(=O)(=O)NC(=O)C(C)C)c([N+](=O)[O-])c1
14 | 1.45 | Cc1ccc(S(N)(=O)=O)c(NC(=O)C(C)C)c1
15 | 2.56 | CC(C)C(=O)NS(=O)(=O)c1ccc(C(F)(F)F)cc1N
16 | 2.53 | CCC(CC)C(=O)NS(=O)(=O)c1ccc(Cl)cc1N
17 | 2.17 | CCC(CC)C(=O)NS(=O)(=O)c1ccccc1[N+](=O)[O-]
18 | 2.67 | CCC(CC)C(=O)NS(=O)(=O)c1ccc(C)cc1[N+](=O)[O-]
19 | 3.1 | CC(C)C(=O)NS(=O)(=O)c1cc([N+](=O)[O-])cc(C(F)(F)F)c1
20 | 1.72 | CC(C)C(=O)NS(=O)(=O)c1ccccc1[N+](=O)[O-]
21 | 1.17 | CC(C)C(=O)NS(=O)(=O)c1ccccc1N
22 | 1.58 | COc1ccc(S(=O)(=O)NC(=O)C(C)C)c(N)c1
23 | 1.65 | Cc1ccc(S(=O)(=O)NC(=O)C(C)C)c(N)c1
24 | 2.18 | CCC(CC)C(=O)NS(=O)(=O)c1ccc(C)cc1N
